Source: patent US9809602B2, “Compounds for treating viral infections” (INSTITUT PASTEUR KOREA, priority 2014, dated 2017)

System: genotype 1/2 chimeric cell culture derived HCV (HCVcc)
Assay: Genotype 1/2 chimeric HCVcc assay (nano-luciferase, HCV replication)
Format: cell-based
Details: Hepatitis C virus, Huh7.5, 72 h
Protocol: Naïve Huh-7.5 target cells were plated at 2400 cells/well in 25 μL of culture media in 384-well plates (Greiner bio-one, μ clear black). After overnight incubation, compounds serially diluted in 10 μL of cell culture media were added. After 2 h compound treatment, cells were inoculated with 40 μL of genotype 1/2 chimeric cell culture derived HCV (HCVcc) which express structural proteins of an HCV genotype 1a isolate (TN accession number EF621489) and non-structural proteins of HCV genotype 2a (JFH-1) with nano-luciferase reporter. At 72 h post infection, nano-luciferase activity (Nano-Glo™, Promega) and cellular ATP (Cell titer-Glo™, Promega) were measured as a marker for HCV replication and cytotoxicity, respectively. EC50 and CC50 were calculated by non-linear regression analyzing using GraphPad Prism (GraphPad Software).

SMILES	EC50 [nM]
CCOC(=O)c1c(NC(=O)C(=O)NCc2c(-n3cccc3)sc3c2CCN(CC)C3)sc2c1CCCC2 [Compound 78]	< 100
CCN1CCc2c(sc(-n3cccc3)c2CNC(=O)Nc2sc3c(c2C(=O)NCCCOC)CCCC3)C1 [Compound 79]	100 to 1000
CCN1CCc2c(sc(-n3cccc3)c2CNC(=O)Nc2sc3c(c2C(=O)NCC(C)C)CCCC3)C1 [Compound 80]	< 100
CCOC(=O)c1c(NC(=O)NCc2c(Br)sc3c2CCNC3)sc2c1CCCC2 [Compound 81]	< 100
O=C(NCc1c(-n2cccc2)sc2c1CCNC2)Nc1sc2c(c1C(=O)NCc1ccccc1)CCCC2 [Compound 82]	100 to 1000
O=C(NCc1c(-n2cccc2)sc2c1CCNC2)Nc1sc2c(c1C(=O)NCC1CCCCC1)CCCC2 [Compound 83]	1000 to 10000
CN1CCN(C(=O)c2c(NC(=O)NCc3c(-n4cccc4)sc4c3CCNC4)sc3c2CCCC3)CC1 [Compound 84]	1000 to 10000
CCOC(=O)c1c(NC(=O)C(=O)NCc2c(-n3cccc3)sc3c2CCN(C(=O)OC(C)(C)C)C3)sc2c1CCCC2 [Compound 85]	> 10000
CCOC(=O)c1c(NC(=O)C(=O)NCc2c(-n3cccc3)sc3c2CCNC3)sc2c1CCCC2 [Compound 86]	1000 to 10000
CCOC(=O)c1c(NC(=O)NCc2c(-n3cnc(C)n3)sc3c2CCNC3)sc2c1CCCC2 [Compound 87]	100 to 1000
CCN1CCc2c(sc(-n3cccc3)c2CNC(=O)Nc2sc3c(c2C(=O)NCCCCNC(=O)CCCCCN)CCCC3)C1 [Compound 88]	1000 to 10000
CCN1CCc2c(sc(-n3cccc3)c2CNC(=O)Nc2sc3c(c2C(=O)NCCOCCOCCN)CCCC3)C1 [Compound 89]	1000 to 10000
CCN1CCc2c(sc(-n3cccc3)c2CNC(=O)Nc2sc3c(c2C(=O)NCCCCNC(=O)OC(C)(C)C)CCCC3)C1 [Compound 90]	1000 to 10000
CCN1CCc2c(sc(-n3cccc3)c2CNC(=O)Nc2sc3c(c2C(=O)NCCCCN)CCCC3)C1 [Compound 91]	100 to 1000
CCN1CCc2c(sc(-n3cccc3)c2CNC(=O)Nc2sc3c(c2C(=O)NCCCCNC(=O)CCCCCNC(=O)OC(C)(C)C)CCCC3)C1 [Compound 92]	1000 to 10000
CCOC(=O)c1c(NC(=O)NCc2ccc(CN(C)C)cc2Br)sc2c1CCCC2 [Compound 93]	100 to 1000
CCOC(=O)c1c(NC(=O)OCc2c(-n3cccc3)sc3c2CCN(CC)C3)sc2c1CCCC2 [Compound 94]	< 100
CCN1CCc2c(sc(-n3cccc3)c2CNC(=O)Nc2sc3c(c2-c2c[nH]cn2)CCCC3)C1 [Compound 95]	> 10000
CCOC(=O)c1c(NC(=O)NCc2c(C(F)(F)F)sc3c2CCNC3)sc2c1CCCC2 [Compound 96]	< 100
CCOC(=O)c1c(NC(=O)NCc2c(Cl)sc3c2CCNC3)sc2c1CCCC2 [Compound 97]	100 to 1000
CC(C)N1CCc2c(sc(-n3cccc3)c2CNC(=O)Nc2sc3c(c2C(=O)OC(C)(C)C)CCCC3)C1 [Compound 98]	< 100
CC(C)(C)OC(=O)c1c(NC(=O)NCc2c(-n3cccc3)sc3c2CCN(C(C)(C)C)C3)sc2c1CCCC2 [Compound 99]	< 100
CCOC(=O)c1c(NC(=O)NCc2c(-n3cccc3)sc3c2CCCN3C(=O)OC(C)(C)C)sc2c1CCCC2 [Compound 100]	> 10000
CCOC(=O)c1c(NC(=O)NCc2c(-n3cccc3)sc3c2CCCN3)sc2c1CCCC2 [Compound 101]	100 to 1000

SMILES	EC50 [nM]
CCOC(=O)c1c(NC(=O)NCc2cccc(CN(C)C)c2)sc2c1CCCC2 [Compound 102]	100 to 1000
CCOC(=O)c1c(NC(=O)NCc2ccc(N(C)C)cc2)sc2c1CCCC2 [Compound 103]	< 100
CCOC(=O)c1cc(C)ccc1NC(=O)NCc1c(-n2cccc2)sc2c1CCNC2 [Compound 104]	1000 to 10000
CCN1CCc2c(sc(-n3cccc3)c2NC(=O)Nc2sc3c(c2C(=O)OC(C)(C)C)CCCC3)C1 [Compound 105]	1000 to 10000
CC(C)(C)OC(=O)c1c(NC(=O)NCc2c(-n3cccc3)sc3c2CCNC3)sc2c1CCCC2 [Compound 106]	< 100
CCOC(=O)c1c(NC(=O)NCc2c(C)sc3c2CCNC3)sc2c1CCCC2 [Compound 107]	< 100
CCOC(=O)c1c(NC(=O)NCc2cc(CN(C)C)ccc2F)sc2c1CCCC2 [Compound 108]	100 to 1000
CCOC(=O)c1sc2c(c1NC(=O)NCc1c(-n3cccc3)sc3c1CCN(CC)C3)CCCC2 [Compound 109]	1000 to 10000
CCOC(=O)c1c(NC(=O)NCc2c(Br)sc3c2CCN(CC)C3)sc2c1CCCC2 [Compound 110]	< 100
CCN1CCc2c(sc(Br)c2CNC(=O)Nc2sc3c(c2C(=O)OC(C)(C)C)CCCC3)C1 [Compound 111]	< 100
CCOC(=O)c1c(NC(=O)NCc2c(-n3cccc3)sc3c2CCNC3)sc2c1CCC2 [Compound 112]	< 100
CCOC(=O)c1c(NC(=O)NCc2c(-n3cccc3)sc3c2CCNC3)sc2c1CCCCC2 [Compound 113]	100 to 1000
CCN1CCc2c(sc(-n3cccc3)c2CNC(=O)Nc2sc3c(c2C(=O)OC(C)(C)C)CCC3)C1 [Compound 114]	< 100
CCN1CCc2c(sc(-n3cccc3)c2CNC(=O)Nc2sc3c(c2C(=O)OC(C)(C)C)CCCCC3)C1 [Compound 115]	< 100
CC(C)(C)OC(=O)c1c(NC(=O)NCc2c(Br)sc3c2CCNC3)sc2c1CCCC2 [Compound 116]	< 100
CC(C)(C)OC(=O)c1c(NC(=O)NCc2c(C(F)(F)F)sc3c2CCNC3)sc2c1CCCC2 [Compound 117]	< 100
CCOC(=O)c1c(NC(=O)NCc2c(C(F)(F)F)sc3c2CCN(CC)C3)sc2c1CCCC2 [Compound 118]	< 100
CCN1CCc2c(sc(C(F)(F)F)c2CNC(=O)Nc2sc3c(c2C(=O)OC(C)(C)C)CCCC3)C1 [Compound 119]	< 100
CCOC(=O)c1c(NC(=O)C(=O)NCc2c(C(F)(F)F)sc3c2CCNC3)sc2c1CCCC2 [Compound 120]	1000 to 10000
CCN1CCc2c(sc(-n3cccc3)c2CNC(=O)Nc2sc3c(c2C(=O)N(C)C)CCCC3)C1 [Compound 122]	100 to 1000
CC(C)(C)OC(=O)c1c(NC(=O)NCc2c(-c3cccnc3)sc3c2CCNC3)sc2c1CCCC2 [Compound 123]	< 100
CC(C)(C)OC(=O)c1c(NC(=O)NCc2csc3c2CCNC3)sc2c1CCCC2 [Compound 124]	< 100
CCOC(=O)c1c(NC(=O)NCc2c(N3CCCC3)sc3c2CCNC3)sc2c1CCCC2 [Compound 125]	100 to 1000
COc1sc2c(c1CNC(=O)Nc1sc3c(c1C(=O)OC(C)(C)C)CCCC3)CCNC2 [Compound 126]	< 100

SMILES	EC50 [nM]
CCN1CCc2c(sc(-n3cccc3)c2CNC(=O)Nc2sc3c(c2C(=O)OC)CCCC3)C1 [Compound 127]	< 100
COC(=O)c1c(NC(=O)NCc2c(Br)sc3c2CCNC3)sc2c1CCCC2 [Compound 128]	< 100
COC(=O)c1c(NC(=O)NCc2c(C(F)(F)F)sc3c2CCNC3)sc2c1CCCC2 [Compound 129]	< 100
CC(C)(C)OC(=O)c1c(NC(=O)NCc2c(-c3ccccc3)sc3c2CCNC3)sc2c1CCCC2 [Compound 130]	< 100
CC(C)(C)OC(=O)c1c(NC(=O)NCc2c(-c3ccc(C(F)(F)F)nc3)sc3c2CCNC3)sc2c1CCCC2 [Compound 131]	100 to 1000
CCOC(=O)c1c(NC(=O)NCc2c(C(F)(F)F)sc3c2CCNC3)sc(C)c1C [Compound 132]	< 100
CCOC(=O)c1c(NC(=O)NCc2c(Br)sc3c2CCNC3)sc(C)c1C [Compound 133]	< 100
Cc1c(CN(C)C)sc(C(F)(F)F)c1CNC(=O)Nc1sc2c(c1C(=O)OC(C)(C)C)CCCC2 [Compound 134]	< 100
CCN(C)Cc1sc(-n2cccc2)c(CNC(=O)Nc2sc3c(c2C(=O)OC(C)(C)C)CCCC3)c1C [Compound 136]	< 100
Cc1sc(NC(=O)NCc2c(C(F)(F)F)sc3c2CCNC3)c(C(=O)OC(C)(C)C)c1C [Compound 137]	< 100
Cc1sc(NC(=O)NCc2c(Br)sc3c2CCNC3)c(C(=O)OC(C)(C)C)c1C [Compound 138]	< 100
CC(C)OC(=O)c1c(NC(=O)NCc2c(Br)sc3c2CCNC3)sc2c1CCCC2 [Compound 140]	< 100
CC(C)OC(=O)c1c(NC(=O)NCc2c(-n3cccc3)sc3c2CCNC3)sc2c1CCCC2 [Compound 141]	< 100
COC(=O)c1c(NC(=O)NCc2c(-n3cccc3)sc3c2CCNC3)sc2c1CCCC2 [Compound 142]	100 to 1000
CC(C)(C)OC(=O)c1c(NC(=O)NCc2c(N3CCCC3)sc3c2CCNC3)sc2c1CCCC2 [Compound 143]	< 100
CN1CCN(c2sc3c(c2CNC(=O)Nc2sc4c(c2C(=O)OC(C)(C)C)CCCC4)CCNC3)CC1 [Compound 144]	100 to 1000
CC(C)(C)OC(=O)c1c(NC(=O)NCc2c(-c3ccncc3)sc3c2CCNC3)sc2c1CCCC2 [Compound 145]	< 100
CC(C)(C)OC(=O)c1c(NC(=O)NCc2c(-c3ccc(C(F)(F)F)cc3)sc3c2CCNC3)sc2c1CCCC2 [Compound 146]	< 100
Cc1nnc(-c2c(NC(=O)NCc3c(C(F)(F)F)sc4c3CCNC4)sc(C)c2C)o1 [Compound 149]	< 100
CCOC(=O)c1c(NC(=O)NCc2c(C(F)(F)F)sc3c2CCNC3)sc2c1CCOC2 [Compound 150]	< 100
CCOC(=O)c1c(NC(=O)NCc2c(-n3cccc3)sc3c2CCN(CC)C3)sc2c1C(C)CCC2 (stereo not drawn) [Compound 151]	< 100
CCOC(=O)c1c(NC(=O)NCc2c(-n3cccc3)sc3c2CCN(C)C3)sc2c1C(C)CCC2 (stereo not drawn) [Compound 152]	< 100
CCOC(=O)c1c(NC(=O)NCc2c(-n3cccc3)sc3c2CCN(CC)C3)sc2c1CCC(C)C2 (stereo not drawn) [Compound 153]	< 100
CCOC(=O)c1c(NC(=O)NCc2c(-n3cccc3)sc3c2CCN(C)C3)sc2c1CCC(C)C2 (stereo not drawn) [Compound 154]	< 100
